Assay results as given in patent publication US8476251B2, “Skin care compositions comprising substituted diamines” (Conopco, Inc., priority 2010, dated 2013).

Tested on: Melanoderm tissue equivalent model MEL-300 containing melanocytes obtained from dark skin individuals
Assay: Melanoderm tissue equivalent model MEL-300, total melanin content (inhibition of melanogenesis)
Assay type: cell-based
Details: 14 days; for inhibition at 10 µM: Melanocyte, 336 h, 10 μM in maintenance medium, total melanin content vs DMSO vehicle control, read-out: Melanoderm (% Reduction at 10 μM); for melanogenesis inhibition (in words): Melanoderm MEL-300, 10 μM
Experimental: Melanoderm tissue equivalent model MEL-300 (MatTek: Ashland, Mass.) containing melanocytes obtained from dark skin individuals were cultured as per supplier instructions. Components were added to the maintenance medium phase (no topical treatments) at a final concentration of 10 μM for 14 days at which time the experiment was terminated and the tissues assessed for melanin content. Medium and treatments were changed three times per week. DMSO was utilized as the vehicle control and all treatments were performed at least in duplicate.
For quantification of total melanin, each Melanoderm was placed into an individual Eppendorf tube (2 mL) into which 250 μL of Solvable™ tissue solubilizer (Packard Bioscience Co., Cat# 6NE9100) was added. Each tube was vortexed and incubated at 60° C. for 18 hours. Each sample was then centrifuged (5-minutes at 13,000 RPMs) to remove any particulates. 100 or 200 μL of supernatant were transferred to a 96 well microtiter plate and the absorbance read at 490 nm. Total melanin content was calculated from a standard curve using synthetic melanin (Sigma Cat# M8631). Data was analyzed for significance using the t-test in Microsoft Excel to generate p-values (p-values less than 0.01 represent 99% confidence, p values of 0.05 represent 95% confidence both of which are statistically significant).

Structure (SMILES)	inhibition at 10 µM	melanogenesis inhibition (in words)
CCN(CC)CCN(Cc1ccccc1)Cc1ccccc1 [Compound 5d, N,N-dibenzyl-N′,N′-diethylethane-1,2-diamine]	45.6%	–
COc1ccc(CN(CCN(C)C)Cc2ccccc2)cc1 [Compound 3h, N-benzyl-N-(4-methoxybenzyl)-N′,N′-dimethylethane-1,2-diamine]	48.8%	–
CCN(CCN(C)C)Cc1ccccc1 [Compound 3j, N-benzyl-N-ethyl-N′,N′-dimethylethane-1,2-diamine]	-0.1%	is not
CN(C)CCN(CC1CCCCC1)CC1CCCCC1 [Compound 5a, N,N-bis(cyclohexylmethyl)-N′,N′-dimethylethane-1,2-diamine]	42.5%	–
CN(C)CCN(Cc1ccccc1)Cc1ccccc1 [Compound 3b, N,N-dibenzyl-N′,N′-dimethylethane-1,2-diamine]	39.5%	effective at melanogenesis inhibition
COc1ccc(CN(CCN(C)C)Cc2ccc(OC)cc2)cc1 [Compound 5b, N,N-bis(4-methoxybenzyl)-N′,N′-dimethylethane-1,2-diamine]	48.7%	–
CN(C)CCN(Cc1ccccc1)CC1CCCCC1 [Compound 3a, N-benzyl-N-(cyclohexylmethyl)-N′,N′-dimethylethane-1,2-diamine]	51.3%	effective at melanogenesis inhibition
c1ccc(CN(CCN2CCCC2)Cc2ccccc2)cc1 [Compound 5e, N,N-dibenzyl-2-(pyrrolidin-1-yl)ethanamine]	40.6%	–
CN(C)CCCN(Cc1ccccc1)Cc1ccccc1 [Compound 5f, N,N-dibenzyl-N′,N′-dimethylpropane-1,3-diamine]	50%	–
Cc1cccc(CN(CCN(C)C)Cc2ccccc2)c1 [Compound 3f, N-benzyl-N′,N′-dimethyl-N-(3-methylbenzyl)ethane-1,2-diamine]	51.6%	–
Cc1ccccc1CN(CCN(C)C)Cc1ccccc1 [Compound 3e, N-benzyl-N′,N′-dimethyl-N-(2-methylbenzyl)ethane-1,2-diamine]	46.6%	–
CN(C)CCN(Cc1ccccc1)Cc1ccc2ccccc2c1 [Compound 3d, N-benzyl-N′,N′-dimethyl-N-(naphthalen-2-ylmethyl)ethane-1,2-diamine]	56%	–
CN(C)CCN(CCc1ccccc1)Cc1ccccc1 [Compound 3c, N-benzyl-N′,N′-dimethyl-N-(2-phenylethyl)ethane-1,2-diamine]	51.8%	–
CC(c1ccccc1)N(CCN(C)C)Cc1ccccc1 (stereo not shown) [Compound 11, N-benzyl-N′,N′-dimethyl-N-(1-phenylethyl)ethane-1,2-diamine]	47.8%	–
CN(C)CCN(Cc1ccccc1)C(=O)c1ccccc1 [Compound 7, N-benzyl-N-[2-(dimethylamino)ethyl]benzamide]	4.4%	is not
Cc1ccc(CN(CCN(C)C)Cc2ccccc2)cc1 [Compound 3g, N-benzyl-N′,N′-dimethyl-N-(4-methylbenzyl)ethane-1,2-diamine]	53.2%	–
CN(C)CCN(Cc1ccc(F)cc1)Cc1ccc(F)cc1 [Compound 5c, N,N-bis(4-fluorobenzyl)-N′,N′-dimethylethane-1,2-diamine]	49.3%	–
CN(C)CCN(Cc1ccccc1)Cc1ccc(F)cc1 [Compound 3i, N-benzyl-N-(4-fluorobenzyl)-N′,N′-dimethylethane-1,2-diamine]	47.8%	–
